For data set [1] the following is noted: in water at 25°C; cited from earlier work.
Data set [2] is described as follows: physchem. The note with it: 25 °C, organic solvent or mixture, thermodynamic from solid.
Data set [3] can be described thus: Solubility of the additive or its sodium salt in a mixed solvent of tetrahydrofuran, acetone, tert-butyl methyl ether and water (supernatant analysed by HPLC). The note with it: 25 °C, organic solvent or mixture, thermodynamic from solid.

Molecules are shown by their SMILES.

This passage reports pKa and solubility results from patent EP4782433A1, “METHOD FOR PRODUCING ARYLAMIDE DERIVATIVE” (CHUGAI SEIYAKU KABUSHIKI KAISHA, priority 2023, dated 2025).

A word on the pKa: it is the pH at which an ionisable group is half protonated. A word on the solubility: it is the concentration that dissolves in the medium under given conditions.

For the compound `CC(=O)Nc1ccc(O)cc1` [Acetaminophen], the pKa in data set [1] is reported as 9.78. Besides, the solubility in data set [2] (Solubility of additive) is at least 70 mM; in data set [2] (Solubility of sodium salt of additive), 40 mM.

Consider `Cc1cccc(O)c1` [m-Cresol], for which the solubility in data set [3] is at least 50 mM; in data set [3] (Solubility of additive, 25°C, tetrahydrofuran:acetone:tert-butyl methyl ether 8:10:5 by volume, water 3% by mass, stirred for 6 hours or longer), at least 50 mM.
